Publication PMC10176470, “Engaging a Non-catalytic Cysteine Residue Drives Potent and Selective Inhibition of Caspase-6” (Journal of the American Chemical Society, 2023)

Legend:
caspase-6 = caspase-6 (Homo sapiens, UniProt P55212); experiment: biochemical
Protocol: Caspase-6 enzyme assay: The in vitro enzymatic caspase-6 assays utilize synthetic tetrapeptide
substrates labeled with either Rhodamine110 (R110) or 7-Amino-4-(trifluoromethyl)coumarin (AFC)
at the P1 aspartic acid (Asp) residue, as described.3 Briefly, assays were performed in 384-well plates
consisting of caspase-6, VEID-Rh110 or Ac-VEID-AFC and indicated concentration of inhibitor or
DMSO in assay buffer (50 mM HEPES pH 8.0, 100 mM NaCl, 1 mM EDTA, and 500 M ME).
All inhibitors were serially diluted in 100% DMSO prior to dilution in assay buffer and transfer to
assay plate, for a final DMSO concentration of 1%. Compound and protein were preincubated for 15 minutes prior to addition of substrate. The reaction plate was incubated at room temperature for 30
minutes and then read on an Envision (Perkin Elmer) fluorescent plate reader at excitation/emission
wavelengths of 485/535 nm (R110) or 395/495 nm (AFC). Data were processed to generate dose-
response curves and analyzed using a nonlinear curve fit with variable slope in Prism software

[1] = target: proteins of HEK293T cells transiently overexpressing caspase-6 (Homo sapiens, UniProt Q86VP6); experiment: SILAC proteomics / in-gel fluorescence, competition of probe 13-t labeling by 3a; conditions: Comp; protein CAND1 Q86VP6
Protocol: (§1) Cells were lysed, and heavy and light SILAC lysates were combined in a 1:1 ratio and subjected to CuAAC reaction with azido-biotin to biotinylate probe-labeled proteins for subsequent capture on streptavidin-coated beads. Bead-bound proteins were split for analysis by in-gel fluorescence and tryptic digestion on-bead for LC–MS/MS analysis.
(§2) SILAC labeling and alkyne probe treatment: HEK293T cells were seeded into 8x 15 cm plates at
(§3) a density of 500,000 cells/plate. 4 of these plates were grown in light SILAC DMEM and 4 were
(§4) grown in heavy SILAC DMEM all containing 10% FBS and 4.5g/L glucose. The next day, all 8
(§5) plates were transfected with a pCMV6-Entry plasmid coding for caspase-6-myc-DDK lacking the
(§6) prodomain. After 24 hours, media was replaced with fresh SILAC growth media containing 4.5 g/L
(§7) glucose and 3% FBS. 24 hours later the plates were treated with probe and inhibitor for 1 hours as
(§8) follows: 2 of the light plates were treated with vehicle, 2 light plates and 2 heavy plates treated with
(§9) for 60 minutes. After treatment, media was removed, and cells were washed with 15 mL PBS for 5
(§10) minutes. Cells were then harvested by scraping in cold PBS and lysed in the presence of Roche
(§11) complete protease inhibitors. Lysates were clarified by centrifugation at 10,000xg for 10 minutes and
(§12) the protein in the supernatant was quantified by BCA assay.
(§13) Proteomics assay: 1 mg of each lysate was diluted to 2mg/ml in PBS with Roche complete protease
(§14) inhibitors. To this was added 0.1 mM biotin-azide, 1 mM tris(2-carboxyethyl)phosphine (TCEP), 0.1
(§15) mM Tris((1-benzyl-4-triazolyl)methyl)amine (TBTA) ligand, and 1 mM CuSO4 in a final volume of
(§16) 0.5 mL. The reaction was incubated at room temperature for 1 hour and was vortexed every 15
(§17) minutes. After 1 hour, proteins are precipitated and are pelleted by centrifuging at 16,000xg for 4
(§18) min at 4 °C. The supernatants were discarded, and the pellets were solubilized with 0.5 mL cold
(§19) The cold methanol wash was then repeated, and the washed
(§20) pellets were resuspended in 1 mL of 1.2% SDS and sonicated until clear. The samples were heat
(§21) denatured at 80-90 °C for 5 minutes and any insoluble particles were removed by centrifugation at
(§22) 6,500xg for 5 minutes. The 1 mL supernatant was transferred to a 15 mL conical tubes containing 5
(§23) mL of PBS and 150 µL of washed neutravidin beads were added. The samples were incubated for 2
(§24) hours at 4 °C while rotating, at which point the samples were warmed to resolubilize any precipitated
(§25) SDS. The beads were pelleted by centrifugation at 1400xg for 3 min and washed for 10 minutes with
(§26) the following solutions: 2x 1% NP-40, 2x PBS + 1 M NaCl, and 2x 50 mM ammonium bicarbonate
(§27) (ABC) + 2 M urea. The beads were then transferred to a 1.5 mL microcentrifuge tube using 2x250
(§28) µL 100 mM Tris pH 8.0 + 4 M Guanidium hydrochloride (final volume 500 µL).

[2] = target: proteins of HEK293T cells transiently overexpressing caspase-6 (Homo sapiens, UniProt O00299); experiment: as above; conditions: Comp; protein CLIC1 O00299
Protocol: as §1, §2, §3, §4, §5, §6, §7, §8, §9, §10, §11, §12, §13, §14, §15, §16, §17, §18, §19, §20, §21, §22, §23, §24, §25, §26, §27, §28

[3] = target: proteins of HEK293T cells transiently overexpressing caspase-6 (Homo sapiens, UniProt P36578); experiment: as above; conditions: Comp; protein RPL4 P36578
Protocol: as §1, §2, §3, §4, §5, §6, §7, §8, §9, §10, §11, §12, §13, §14, §15, §16, §17, §18, §19, §20, §21, §22, §23, §24, §25, §26, §27, §28

[4] = target: proteins of HEK293T cells transiently overexpressing caspase-6 (Homo sapiens, UniProt P27348); experiment: as above; conditions: Comp; protein YWHAQ P27348
Protocol: as §1, §2, §3, §4, §5, §6, §7, §8, §9, §10, §11, §12, §13, §14, §15, §16, §17, §18, §19, §20, §21, §22, §23, §24, §25, §26, §27, §28

[5] = target: proteins of HEK293T cells transiently overexpressing caspase-6 (Homo sapiens, UniProt P13667); experiment: as above; conditions: Comp; protein PDIA4 P13667
Protocol: as §1, §2, §3, §4, §5, §6, §7, §8, §9, §10, §11, §12, §13, §14, §15, §16, §17, §18, §19, §20, §21, §22, §23, §24, §25, §26, §27, §28

[6] = target: proteins of HEK293T cells transiently overexpressing caspase-6 (Homo sapiens, UniProt P46779); experiment: as above; conditions: Comp; protein RPL28 P46779
Protocol: as §1, §2, §3, §4, §5, §6, §7, §8, §9, §10, §11, §12, §13, §14, §15, §16, §17, §18, §19, §20, §21, §22, §23, §24, §25, §26, §27, §28

[7] = target: proteins of HEK293T cells transiently overexpressing caspase-6 (Homo sapiens, UniProt P63104); experiment: as above; conditions: Comp; protein YWHAZ P63104
Protocol: as §1, §2, §3, §4, §5, §6, §7, §8, §9, §10, §11, §12, §13, §14, §15, §16, §17, §18, §19, §20, §21, §22, §23, §24, §25, §26, §27, §28

[8] = target: proteins of HEK293T cells transiently overexpressing caspase-6 (Homo sapiens, UniProt Q13148); experiment: as above; conditions: Comp; protein TARDBP Q13148
Protocol: as §1, §2, §3, §4, §5, §6, §7, §8, §9, §10, §11, §12, §13, §14, §15, §16, §17, §18, §19, §20, §21, §22, §23, §24, §25, §26, §27, §28

[9] = target: T1, proteins of HEK293T cells transiently overexpressing caspase-6 (Homo sapiens, UniProt Q99832); experiment: as above; conditions: Comp; protein CCT7 Q99832
T1 sequence (Q99832 1-543): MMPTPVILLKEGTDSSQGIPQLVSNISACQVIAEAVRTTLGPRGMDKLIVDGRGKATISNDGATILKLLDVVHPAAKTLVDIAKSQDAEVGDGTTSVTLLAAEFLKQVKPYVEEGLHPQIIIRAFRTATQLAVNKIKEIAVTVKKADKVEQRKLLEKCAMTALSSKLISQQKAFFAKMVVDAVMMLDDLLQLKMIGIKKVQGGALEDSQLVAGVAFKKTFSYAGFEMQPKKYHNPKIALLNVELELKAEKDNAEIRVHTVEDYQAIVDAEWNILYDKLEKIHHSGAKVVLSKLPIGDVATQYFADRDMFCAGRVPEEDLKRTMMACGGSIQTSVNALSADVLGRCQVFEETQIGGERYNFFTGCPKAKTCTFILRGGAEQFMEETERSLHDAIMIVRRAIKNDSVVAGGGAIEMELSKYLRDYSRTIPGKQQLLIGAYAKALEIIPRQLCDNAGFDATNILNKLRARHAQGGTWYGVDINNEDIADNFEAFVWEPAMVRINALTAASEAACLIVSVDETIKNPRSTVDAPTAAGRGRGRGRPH
Protocol: as §1, §2, §3, §4, §5, §6, §7, §8, §9, §10, §11, §12, §13, §14, §15, §16, §17, §18, §19, §20, §21, §22, §23, §24, §25, §26, §27, §28

[10] = target: proteins of HEK293T cells transiently overexpressing caspase-6 (Homo sapiens, UniProt Q07020); experiment: as above; conditions: Comp; protein RPL18 Q07020
Protocol: as §1, §2, §3, §4, §5, §6, §7, §8, §9, §10, §11, §12, §13, §14, §15, §16, §17, §18, §19, §20, §21, §22, §23, §24, §25, §26, §27, §28

[11] = target: proteins of HEK293T cells transiently overexpressing caspase-6 (Homo sapiens, UniProt Q00839); experiment: as above; conditions: Comp; protein HNRNPU Q00839
Protocol: as §1, §2, §3, §4, §5, §6, §7, §8, §9, §10, §11, §12, §13, §14, §15, §16, §17, §18, §19, §20, §21, §22, §23, §24, §25, §26, §27, §28

[12] = target: proteins of HEK293T cells transiently overexpressing caspase-6 (Homo sapiens, UniProt Q9Y2X3); experiment: as above; conditions: Comp; protein NOP58 Q9Y2X3
Protocol: as §1, §2, §3, §4, §5, §6, §7, §8, §9, §10, §11, §12, §13, §14, §15, §16, §17, §18, §19, §20, §21, §22, §23, §24, §25, §26, §27, §28

[13] = target: proteins of HEK293T cells transiently overexpressing caspase-6 (Homo sapiens, UniProt P62701); experiment: as above; conditions: Comp; protein RPS4X P62701
Protocol: as §1, §2, §3, §4, §5, §6, §7, §8, §9, §10, §11, §12, §13, §14, §15, §16, §17, §18, §19, §20, §21, §22, §23, §24, §25, §26, §27, §28

[14] = target: proteins of HEK293T cells transiently overexpressing caspase-6 (Homo sapiens, UniProt Q13347); experiment: as above
Protocol: as §1, §2, §3, §4, §5, §6, §7, §8, §9, §10, §11, §12, §13, §14, §15, §16, §17, §18, §19, §20, §21, §22, §23, §24, §25, §26, §27, §28

[15] = target: proteins of HEK293T cells transiently overexpressing caspase-6 (Homo sapiens, UniProt P55884); experiment: as above; conditions: Comp; protein EIF3B P55884
Protocol: as §1, §2, §3, §4, §5, §6, §7, §8, §9, §10, §11, §12, §13, §14, §15, §16, §17, §18, §19, §20, §21, §22, §23, §24, §25, §26, §27, §28

[16] = target: proteins of HEK293T cells transiently overexpressing caspase-6 (Homo sapiens, UniProt P27708); experiment: as above
Protocol: as §1, §2, §3, §4, §5, §6, §7, §8, §9, §10, §11, §12, §13, §14, §15, §16, §17, §18, §19, §20, §21, §22, §23, §24, §25, §26, §27, §28

[17] = target: proteins of HEK293T cells transiently overexpressing caspase-6 (Homo sapiens, UniProt P38919); experiment: as above; conditions: Comp; protein EIF4A3 P38919
Protocol: as §1, §2, §3, §4, §5, §6, §7, §8, §9, §10, §11, §12, §13, §14, §15, §16, §17, §18, §19, §20, §21, §22, §23, §24, §25, §26, §27, §28

[18] = protein EIF3I (Q13347), Exp Comp, analysis C6, p 0.0625, 5 peptides
[19] = protein CAD (P27708), Exp Comp, analysis C6, p 0.5000, 2 peptides

Chain of proteins of HEK293T cells transiently overexpressing caspase-6 (Homo sapiens, UniProt Q13347) (Q13347 whole entry): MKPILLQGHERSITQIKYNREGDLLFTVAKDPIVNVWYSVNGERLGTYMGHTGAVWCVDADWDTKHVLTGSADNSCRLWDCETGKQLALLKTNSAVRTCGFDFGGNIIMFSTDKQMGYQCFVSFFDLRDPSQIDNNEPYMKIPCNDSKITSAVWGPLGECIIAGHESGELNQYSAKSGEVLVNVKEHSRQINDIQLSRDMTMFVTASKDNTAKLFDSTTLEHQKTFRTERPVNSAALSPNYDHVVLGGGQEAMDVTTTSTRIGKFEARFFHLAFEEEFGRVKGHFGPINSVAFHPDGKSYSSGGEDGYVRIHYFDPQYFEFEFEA
Chain of proteins of HEK293T cells transiently overexpressing caspase-6 (Homo sapiens, UniProt P27708) (P27708 whole entry): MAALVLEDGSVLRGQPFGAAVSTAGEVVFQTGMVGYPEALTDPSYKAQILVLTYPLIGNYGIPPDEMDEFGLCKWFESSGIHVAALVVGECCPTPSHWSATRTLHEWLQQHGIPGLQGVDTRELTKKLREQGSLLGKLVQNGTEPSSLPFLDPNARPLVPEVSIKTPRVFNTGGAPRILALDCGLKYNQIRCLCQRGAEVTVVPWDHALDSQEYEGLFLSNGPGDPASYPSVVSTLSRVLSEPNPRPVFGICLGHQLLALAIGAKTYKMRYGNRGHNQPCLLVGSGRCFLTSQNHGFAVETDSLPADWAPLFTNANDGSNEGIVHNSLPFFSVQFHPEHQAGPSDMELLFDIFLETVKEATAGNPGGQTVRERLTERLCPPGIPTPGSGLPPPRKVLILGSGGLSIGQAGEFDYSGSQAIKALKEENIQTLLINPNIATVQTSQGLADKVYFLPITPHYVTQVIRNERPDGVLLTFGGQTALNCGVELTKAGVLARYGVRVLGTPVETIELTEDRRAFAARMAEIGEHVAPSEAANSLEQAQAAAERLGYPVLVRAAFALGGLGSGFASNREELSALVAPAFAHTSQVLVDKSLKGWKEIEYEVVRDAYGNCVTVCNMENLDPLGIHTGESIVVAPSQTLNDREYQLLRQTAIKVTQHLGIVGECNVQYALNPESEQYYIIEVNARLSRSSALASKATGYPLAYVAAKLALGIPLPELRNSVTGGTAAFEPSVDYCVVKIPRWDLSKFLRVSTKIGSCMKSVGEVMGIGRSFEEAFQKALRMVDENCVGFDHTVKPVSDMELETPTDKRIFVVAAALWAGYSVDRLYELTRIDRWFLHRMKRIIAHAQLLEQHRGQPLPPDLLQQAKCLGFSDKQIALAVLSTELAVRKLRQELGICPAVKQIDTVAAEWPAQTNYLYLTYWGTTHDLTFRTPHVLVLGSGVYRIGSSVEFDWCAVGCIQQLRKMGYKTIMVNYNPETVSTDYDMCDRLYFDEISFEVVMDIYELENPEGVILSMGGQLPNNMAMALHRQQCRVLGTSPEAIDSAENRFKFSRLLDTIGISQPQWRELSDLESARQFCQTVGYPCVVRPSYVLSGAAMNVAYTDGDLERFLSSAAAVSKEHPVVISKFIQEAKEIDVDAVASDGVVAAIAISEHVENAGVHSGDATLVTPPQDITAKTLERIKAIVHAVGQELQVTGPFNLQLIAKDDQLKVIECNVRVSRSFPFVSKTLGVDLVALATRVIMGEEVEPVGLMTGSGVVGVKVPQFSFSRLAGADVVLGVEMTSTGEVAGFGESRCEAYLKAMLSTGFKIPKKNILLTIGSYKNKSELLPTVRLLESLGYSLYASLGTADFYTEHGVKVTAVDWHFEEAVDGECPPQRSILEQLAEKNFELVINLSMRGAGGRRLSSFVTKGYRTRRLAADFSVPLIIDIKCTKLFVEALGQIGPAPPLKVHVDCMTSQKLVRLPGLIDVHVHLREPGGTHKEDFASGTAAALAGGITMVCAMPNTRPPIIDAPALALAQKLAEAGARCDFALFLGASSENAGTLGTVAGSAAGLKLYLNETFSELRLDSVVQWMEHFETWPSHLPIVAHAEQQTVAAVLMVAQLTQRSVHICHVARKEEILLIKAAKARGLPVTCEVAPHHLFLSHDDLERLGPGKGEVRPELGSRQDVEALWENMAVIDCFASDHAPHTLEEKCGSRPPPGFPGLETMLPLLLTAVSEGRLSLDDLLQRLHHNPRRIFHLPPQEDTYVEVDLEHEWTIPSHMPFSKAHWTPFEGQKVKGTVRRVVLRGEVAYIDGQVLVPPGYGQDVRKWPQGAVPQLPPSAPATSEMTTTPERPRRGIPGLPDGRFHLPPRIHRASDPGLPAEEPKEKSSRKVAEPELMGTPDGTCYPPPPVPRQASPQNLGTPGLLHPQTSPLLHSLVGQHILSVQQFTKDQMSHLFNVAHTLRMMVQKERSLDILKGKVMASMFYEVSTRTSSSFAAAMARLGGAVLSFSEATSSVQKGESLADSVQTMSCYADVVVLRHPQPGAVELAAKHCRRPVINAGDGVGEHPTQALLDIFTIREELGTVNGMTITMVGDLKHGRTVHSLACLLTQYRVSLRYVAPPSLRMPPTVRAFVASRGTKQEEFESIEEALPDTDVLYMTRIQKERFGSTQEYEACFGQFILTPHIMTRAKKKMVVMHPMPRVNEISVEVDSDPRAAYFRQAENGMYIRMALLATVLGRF
Chain of proteins of HEK293T cells transiently overexpressing caspase-6 (Homo sapiens, UniProt P55884) (P55884 whole entry): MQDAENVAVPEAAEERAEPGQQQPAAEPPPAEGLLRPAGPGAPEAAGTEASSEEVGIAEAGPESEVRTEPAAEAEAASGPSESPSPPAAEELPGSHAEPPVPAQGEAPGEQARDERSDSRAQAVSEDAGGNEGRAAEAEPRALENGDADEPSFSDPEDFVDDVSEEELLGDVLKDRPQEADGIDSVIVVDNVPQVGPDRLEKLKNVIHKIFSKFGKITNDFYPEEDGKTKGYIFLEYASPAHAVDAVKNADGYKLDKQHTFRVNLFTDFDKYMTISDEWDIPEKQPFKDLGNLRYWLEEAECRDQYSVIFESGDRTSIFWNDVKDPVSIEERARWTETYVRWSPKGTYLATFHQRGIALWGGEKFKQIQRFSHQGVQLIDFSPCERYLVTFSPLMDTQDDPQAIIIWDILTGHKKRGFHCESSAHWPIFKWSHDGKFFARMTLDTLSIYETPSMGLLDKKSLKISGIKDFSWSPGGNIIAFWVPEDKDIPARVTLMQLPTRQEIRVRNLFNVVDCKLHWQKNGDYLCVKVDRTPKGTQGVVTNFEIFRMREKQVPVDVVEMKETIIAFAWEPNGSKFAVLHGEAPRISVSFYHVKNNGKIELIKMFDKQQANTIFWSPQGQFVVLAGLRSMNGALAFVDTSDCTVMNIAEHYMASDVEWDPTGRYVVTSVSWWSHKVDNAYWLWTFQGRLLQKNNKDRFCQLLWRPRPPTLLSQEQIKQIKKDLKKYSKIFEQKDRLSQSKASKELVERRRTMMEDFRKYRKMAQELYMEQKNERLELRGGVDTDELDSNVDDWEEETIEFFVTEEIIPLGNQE
Chain of proteins of HEK293T cells transiently overexpressing caspase-6 (Homo sapiens, UniProt Q00839) (Q00839 whole entry): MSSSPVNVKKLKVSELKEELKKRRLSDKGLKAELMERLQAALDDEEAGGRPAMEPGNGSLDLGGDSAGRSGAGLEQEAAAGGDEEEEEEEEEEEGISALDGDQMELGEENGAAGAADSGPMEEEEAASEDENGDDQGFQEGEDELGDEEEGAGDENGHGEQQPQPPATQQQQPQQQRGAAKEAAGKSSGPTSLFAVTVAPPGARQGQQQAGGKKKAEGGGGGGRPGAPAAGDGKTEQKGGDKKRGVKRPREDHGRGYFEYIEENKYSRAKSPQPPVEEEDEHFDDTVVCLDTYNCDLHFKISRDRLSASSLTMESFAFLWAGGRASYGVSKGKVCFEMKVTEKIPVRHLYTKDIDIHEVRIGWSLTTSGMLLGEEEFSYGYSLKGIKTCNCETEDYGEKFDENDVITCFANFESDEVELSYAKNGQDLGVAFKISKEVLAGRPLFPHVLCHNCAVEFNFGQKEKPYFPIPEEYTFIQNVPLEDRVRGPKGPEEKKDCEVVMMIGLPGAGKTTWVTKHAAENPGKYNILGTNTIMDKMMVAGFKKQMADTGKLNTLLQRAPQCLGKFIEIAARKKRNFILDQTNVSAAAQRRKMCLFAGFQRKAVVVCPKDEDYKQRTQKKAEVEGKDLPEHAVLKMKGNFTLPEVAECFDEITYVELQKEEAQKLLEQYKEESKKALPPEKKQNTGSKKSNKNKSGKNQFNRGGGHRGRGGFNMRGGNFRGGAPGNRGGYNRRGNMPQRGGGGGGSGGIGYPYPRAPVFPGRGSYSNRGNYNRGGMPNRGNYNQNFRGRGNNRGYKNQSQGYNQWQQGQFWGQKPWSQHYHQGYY
Chain of proteins of HEK293T cells transiently overexpressing caspase-6 (Homo sapiens, UniProt P63104) (P63104 whole entry): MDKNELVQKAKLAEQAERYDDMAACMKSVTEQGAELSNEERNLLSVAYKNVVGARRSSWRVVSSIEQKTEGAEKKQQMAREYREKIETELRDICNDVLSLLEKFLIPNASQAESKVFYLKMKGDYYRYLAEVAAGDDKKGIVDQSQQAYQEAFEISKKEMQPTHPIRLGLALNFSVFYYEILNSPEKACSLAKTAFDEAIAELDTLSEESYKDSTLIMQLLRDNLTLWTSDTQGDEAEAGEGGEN
Chain of proteins of HEK293T cells transiently overexpressing caspase-6 (Homo sapiens, UniProt Q9Y2X3) (Q9Y2X3 whole entry): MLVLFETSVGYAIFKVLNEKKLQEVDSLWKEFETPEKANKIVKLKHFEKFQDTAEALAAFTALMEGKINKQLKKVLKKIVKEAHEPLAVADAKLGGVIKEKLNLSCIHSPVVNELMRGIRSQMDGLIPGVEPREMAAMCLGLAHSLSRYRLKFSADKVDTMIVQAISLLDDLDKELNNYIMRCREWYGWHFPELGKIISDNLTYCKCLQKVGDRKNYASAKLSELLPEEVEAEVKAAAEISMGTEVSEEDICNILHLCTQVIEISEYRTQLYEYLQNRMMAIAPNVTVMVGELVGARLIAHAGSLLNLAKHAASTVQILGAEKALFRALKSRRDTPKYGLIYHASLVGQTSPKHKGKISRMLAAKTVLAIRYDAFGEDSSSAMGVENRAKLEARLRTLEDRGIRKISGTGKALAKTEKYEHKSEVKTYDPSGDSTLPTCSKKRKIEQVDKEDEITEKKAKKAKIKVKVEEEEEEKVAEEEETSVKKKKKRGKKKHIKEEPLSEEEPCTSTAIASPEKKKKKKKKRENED

C#CCOc1ccc([C@@H]2C[C@@H](C(=O)Nc3ccc(OC(F)(F)F)cc3)CN(S(=O)(=O)C=C)C2)cc1 (relative stereo) [13-t]
IC50 (caspase-6): 48 ± 2 nM

C=CS(=O)(=O)N1C[C@H](C(=O)Nc2ccc(OC(F)(F)F)cc2)C[C@@H](c2ccccc2)C1 [3a]
enrich.exp.med [1]: 0.6553 | enrich.exp.med [2]: 0.583 | enrich.exp.med [3]: 0.5872 | enrich.exp.med [4]: 0.7747 | enrich.exp.med [5]: 0.6419 | enrich.exp.med [6]: 0.6162 | enrich.exp.med [7]: 0.6236 | enrich.exp.med [8]: 0.8327 | enrich.exp.med [9]: 0.6137 | enrich.exp.med [10]: 0.6186 | enrich.exp.med [11]: 0.6324 | enrich.exp.med [12]: 0.7213 | enrich.exp.med [13]: 0.5823 | enrich.exp.med ([14]; Comp, protein EIF3I Q13347): 1.022 | enrich.exp.med.lin [14, 18]: 2.03 | enrich.exp.med.log2 [14, 18]: 1.022 | enrich.exp.med [15]: 0.6413 | enrich.exp.med ([16]; Comp, protein CAD P27708): 1.9642 | enrich.exp.med.lin [16, 19]: 3.902 | enrich.exp.med.log2 [16, 19]: 1.9642 | enrich.exp.med [17]: 0.7351
